# Results taken from US20240116910A1, “Heterocycles as WIP1 Inhibitors” (PMV Pharmaceuticals, Inc., priority 2022, published 2024).
# Target: recombinant His-tag Wip1(2-420) protein (amino acids #2-420) (Homo sapiens (Human), UniProt O15297)
# Assay: Wip1(2-420) phosphatase enzyme FDP assay
# Type: biochemical
# Details: fluorescein diphosphate (FDP) substrate, RT 2 hours, fluorescence Ex485/Em535; read-out: WIP1 (Truncated 2-420) FDP Assay: IC50
# Experimental: The Human Wip1 (2-420, aa 2-420) or Wip1 full length (aa 1-605) DNA sequence was codon optimized and synthesized by Genscript for insect cell expression. The open reading frame of Wip1(2-420) with a N-terminal-His6 affinity tag followed by a TEV cleavage site was subcloned sites into the pFastBac1 expression vector. The recombinant bacmid DNA was transfected in Sf9 insect cells for baculovirus production. After 72 hours infection, the Sf9 cells were harvested by centrifugation and resuspended in lysis buffer containing 50 mM Tris/HCl, pH 8.0, 500 mM NaCl, 20% glycerol, Benzonase 0.5% CHAPS and Roche cOmplete™ EDTA free protease inhibitors. Cells were disrupted with microfluidizer and the debris was removed by centrifugation at 185,000 g for 1 hour. The supernatant was subjected to HisTrap FF for affinity purification. Proteins were eluted with a linear gradient of 0-500 mM imidazole in HisTrap buffer containing 50 mM Tris/HCl, pH 8.0, 500 mM NaCl and 20% glycerol, 0.05% CHAPS. The eluted protein was dialyzed against dialysis buffer (20 mM MES, 100 mM NaCl, 20% glycerol, 0.5 mM TCEP, 0.05% CHAPS) followed purification via HiTrap SP HP column. The protein was eluted with a gradient of 100 mM-2 M NaCl in dialysis buffer. His6-[…] was finally concentrated and loaded onto a size-exclusion column (NiLoad 16/600 Superdex 200 pg, GE Healthcare) pre-equilibrated with 50 mM MOPS (pH 7.5), 200 mM NaCl, 20% glycerol, 1 mM TCEP, 0.05% CHAPS and 0.1 mM EGTA. The peak fractions containing purified Nis6-Wip1(2-420) were pooled and concentrated to 1.0 mg/mL and flash frozen at −80° C.
# Wip1 Length and Wip1(2-420) Phosphatase Enzyme FDP Assays.
# Test compounds (252 mM stock in DMSO) were diluted 3 folds in series in DMSO and 1.2 μl per well were added into 384-well polypropylene black plates (Nunc). Twelve μl per well of Assay Buffer (100 mM NaCl, 50 mM MOPS, pH 7.5, 0.8 mM CHAPS, 0.1 mM EGTA, 30 mM MgCl2, 0.3 mM TCEP, 0.2 mg/mL BSA) was added followed by […] per well of 50.4 nM recombinant His-tag Wip1 full length protein (amino acids #1-605) or recombinant His-tag Wip1(2-420) protein (amino acids #2-420) in Assay Buffer and the plate was incubated at RT (22° C.) for 5 min. Ten mM of fluorescein diphosphate (FDP) in DMSO was diluted to […] in Assay Buffer and […] per well was added to the plate and incubated at RT (22° C.) for 2 hours. […] per well of 64.1 mM EDTA in water were added to stop the enzyme reaction. The plate was centrifuged at 1,200 rpm (Eppendorf 5810R Plate centrifuge) for 1 minute and fluorescence intensity (Ex485/Em535) was measured on Perkin Elmer Victor Reader. EC50 values were calculated using either Prism (GraphPad) or ActivityBase software (IDBS), The IC50 results are provided in Table M.
# Chain of recombinant His-tag Wip1(2-420) protein (amino acids #2-420) (O15297 2-420): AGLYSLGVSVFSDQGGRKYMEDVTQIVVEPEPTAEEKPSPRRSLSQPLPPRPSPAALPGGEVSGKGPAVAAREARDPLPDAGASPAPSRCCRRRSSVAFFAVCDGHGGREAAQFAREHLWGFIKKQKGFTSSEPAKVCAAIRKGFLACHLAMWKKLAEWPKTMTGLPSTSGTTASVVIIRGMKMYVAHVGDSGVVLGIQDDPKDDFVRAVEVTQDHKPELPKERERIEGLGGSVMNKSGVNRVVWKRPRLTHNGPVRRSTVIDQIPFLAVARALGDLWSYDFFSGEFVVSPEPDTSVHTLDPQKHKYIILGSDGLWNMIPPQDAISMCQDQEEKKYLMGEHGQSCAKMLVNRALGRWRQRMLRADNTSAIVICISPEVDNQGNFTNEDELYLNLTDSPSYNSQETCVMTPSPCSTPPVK
row,Structure (SMILES),IC50
1,"Cc1ncc(Cl)cc1N[C@@H](C)c1ccc(C(=O)N[C@@H](CC2CCCC2)C(=O)NC2CCC2)s1 [Compound 87, (2S)-2-({5-[(1S)-1-[(5-chloro-2-methylpyridin-3-yl)amino]ethyl]thiophen-2-yl}formamido)-N-cyclobutyl-3-cyclopentylpropanamide]",5 nM
2,"Cc1ncc(Cl)cc1N[C@@H](C)c1ccc(C(=O)N[C@@H](CC2CCCC2)C(=O)NC2CCC2C)s1 (stereo partly drawn) [Compound 88, (2S)-2-({5-[(1S)-1-[(5-chloro-2-methylpyridin-3-yl)amino]ethyl]thiophen-2-yl}formamido)-3-cyclopentyl-N-(2-methylcyclobutyl)propanamide]",6 nM
3,"C[C@@H](c1ccc(C(=O)N[C@@H](CC2CCCC2)C(=O)NC2CC2)s1)N(C)c1cncc(Cl)c1 [Compound 89, (2S)-2-({5-[(1S)-1-[(5-chloropyridin-3-yl)(methyl)amino]ethyl]thiophen-2-yl}formamido)-3-cyclopentyl-N-cyclopropylpropanamide]",102 nM
4,"C[C@H](c1ccc(C(=O)N[C@@H](CC2CCCC2)C(=O)NC2CC2)s1)N(C)c1cncc(Cl)c1 [Compound 90, (2S)-2-({5-[(1R)-1-[(5-chloropyridin-3-yl)(methyl)amino]ethyl]thiophen-2-yl}formamido)-3-cyclopentyl-N-cyclopropylpropanamide]",11 nM
5,"COC(=O)CNC(=O)[C@H](CC1CCCC1)NC(=O)c1ccc([C@H](C)Nc2cc(Cl)cnc2C)s1 [Compound 91, methyl 2-[(2S)-2-({5-[(1S)-1-[(5-chloro-2-methylpyridin-3-yl)amino]ethyl]thiophen-2-yl}formamido)-3-cyclopentylpropanamido]acetate]",19 nM
6,"Cc1ncc(Cl)cc1N[C@@H](C)c1ccc(C(=O)N[C@@H](CC2CCC3CC32)C(=O)NC2CC2)s1 (stereo partly drawn) [Compound 92, (2S)-3-{bicyclo[3.1.0]hexan-2-yl}-2-({5-[(1S)-1-[(5-chloro-2-methylpyridin-3-yl)amino]ethyl]thiophen-2-yl}formamido)-N-cyclopropylpropanamide]",10 nM
7,"Cc1ncc(Cl)cc1N[C@@H](C)c1ccc(C(=O)N[C@@H](CC2CCCC2)C(=O)NCC(=O)O)s1 [Compound 93, 2-[(2S)-2-({5-[(1S)-1-[(5-chloro-2-methylpyridin-3-yl)amino]ethyl]thiophen-2-yl}formamido)-3-cyclopentylpropanamido]acetic acid]",208 nM
8,"COC(=O)[C@H]1C[C@H](NC(=O)[C@H](CC2CCCC2)NC(=O)c2ccc([C@H](C)Nc3cc(Cl)cnc3C)s2)C1 [Compound 94, methyl (1r,3r)-3-[(2S)-2-({5-[(1S)-1-[(5-chloro-2-methylpyridin-3-yl)amino]ethyl]thiophen-2-yl}formamido)-3-cyclopentylpropanamido]cyclobutane-1-carboxylate]",5 nM
9,"Cc1ncc(Cl)cc1N[C@@H](C)c1ccc(C(=O)N[C@@H](CC2CCCC2)C(=O)N[C@H]2C[C@H](C(=O)O)C2)s1 [Compound 95, (1r,3r)-3-[(2S)-2-({5-[(1S)-1-[(5-chloro-2-methylpyridin-3-yl)amino]ethyl]thiophen-2-yl}formamido)-3-cyclopentylpropanamido]cyclobutane-1-carboxylic acid]",10 nM
10,"C[C@@H](c1ccc(C(=O)N[C@@H](CC2CCCC2)C(=O)NC23CC(C2)C3)s1)N(C)c1cncc(Cl)c1 [Compound 96, (2S)-N-{bicyclo[1.1.1]pentan-1-yl}-2-({5-[(1S)-1-[(5-chloropyridin-3-yl)(methyl)amino]ethyl]thiophen-2-yl}formamido)-3-cyclopentylpropanamide]",76 nM
11,"C[C@H](c1ccc(C(=O)N[C@@H](CC2CCCC2)C(=O)NC23CC(C2)C3)s1)N(C)c1cncc(Cl)c1 [Compound 97, (2S)-N-{bicyclo[1.1.1]pentan-1-yl}-2-({5-[(1R)-1-[(5-chloropyridin-3-yl)(methyl)amino]ethyl]thiophen-2-yl}formamido)-3-cyclopentylpropanamide]",11 nM
12,"Cc1ncc(Cl)cc1N[C@@H](C)c1ccc(C(=O)N[C@@H](CC2CCCC2)C(=O)Nc2cnn(C)c2)s1 [Compound 98, (2S)-2-({5-[(1S)-1-[(5-chloro-2-methylpyridin-3-yl)amino]ethyl]thiophen-2-yl}formamido)-3-cyclopentyl-N-(1-methyl-1H-pyrazol-4-yl)propanamide]",6 nM
13,"Cc1ncc(Cl)cc1N[C@@H](C)c1ccc(C(=O)N[C@@H](CC2CCCC2)C(=O)N[C@H]2C[C@@H](C)C2)s1 [Compound 99, (2S)-2-({5-[(1S)-1-[(5-chloro-2-methylpyridin-3-yl)amino]ethyl]thiophen-2-yl}formamido)-3-cyclopentyl-N-[(1r,3s)-3-methylcyclobutyl]propanamide]",7 nM
14,"COC(=O)c1ncc(Cl)cc1N[C@@H](C)c1ccc(C(=O)N[C@@H](CC2CCCC2)C(=O)NC2CC2)s1 [Compound 102, methyl 5-chloro-3-{[(1S)-1-(5-{[(1S)-2-cyclopentyl-1-(cyclopropylcarbamoyl)ethyl]carbamoyl}thiophen-2-yl)ethyl]amino}pyridine-2-carboxylate]",10 nM
15,"COC(=O)c1ncc(Cl)cc1N[C@H](C)c1ccc(C(=O)N[C@@H](CC2CCCC2)C(=O)NC2CC2)s1 [Compound 103, methyl 5-chloro-3-{[(1R)-1-(5-{[(1S)-2-cyclopentyl-1-(cyclopropylcarbamoyl)ethyl]carbamoyl}thiophen-2-yl)ethyl]amino}pyridine-2-carboxylate]",520 nM
16,"Cc1ncc(Cl)cc1N[C@@H](C)c1ccc(C(=O)N[C@@H](CC2CCCC2)C(=O)NC2CC3(CCC3)C2)s1 [Compound 104, (2S)-2-({5-[(1S)-1-[(5-chloro-2-methylpyridin-3-yl)amino]ethyl]thiophen-2-yl}formamido)-3-cyclopentyl-N-{spiro[3.3]heptan-2-yl}propanamide]",6 nM
17,"C[C@H](Nc1cc(Cl)cnc1CO)c1ccc(C(=O)N[C@@H](CC2CCCC2)C(=O)NC2CC2)s1 [Compound 105, (2S)-2-({5-[(1S)-1-{[5-chloro-2-(hydroxymethyl)129yridine-3-yl]amino}ethyl]thiophen-2-yl}formamido)-3-cyclopentyl-N-cyclopropylpropanamide]",18 nM
18,"C[C@@H](Nc1cc(Cl)cnc1CO)c1ccc(C(=O)N[C@@H](CC2CCCC2)C(=O)NC2CC2)s1 [Compound 106, (2S)-2-({5-[(1R)-1-{[5-chloro-2-(hydroxymethyl)129yridine-3-yl]amino}ethyl]thiophen-2-yl}formamido)-3-cyclopentyl-N-cyclopropylpropanamide]",472 nM
19,"Cc1ncc(Cl)cc1N[C@@H](C)c1ccc(C(=O)N[C@@H](CC2CCCCC2)C(=O)NC2CC2)s1 [Compound 107, (2S)-2-({5-[(1S)-1-[(5-chloro-2-methylpyridin-3-yl)amino]ethyl]thiophen-2-yl}formamido)-3-cyclohexyl-N-cyclopropylpropanamide]",4 nM
20,"Cc1ncc(Cl)cc1N[C@@H](C)c1ccc(C(=O)N[C@@H](CC2CCCCC2)C(=O)N[C@H]2C[C@H](F)C2)s1 [Compound 108, (2S)-2-({5-[(1S)-1-[(5-chloro-2-methylpyridin-3-yl)amino]ethyl]thiophen-2-yl}formamido)-3-cyclohexyl-N-[(1r,3r)-3-fluorocyclobutyl]propanamide]",5 nM
21,"Cc1ncc(Cl)cc1N[C@@H](C)c1ccc(C(=O)N[C@@H](CC2CCCCC2)C(=O)NC23CC(C2)C3)s1 [Compound 109, (2S)-N-{bicyclo[1.1.1]pentan-1-yl}-2-({5-[(1S)-1-[(5-chloro-2-methylpyridin-3-yl)amino]ethyl]thiophen-2-yl}formamido)-3-cyclohexylpropanamide]",8 nM
